The results in this text go back to PMC7044277 (Nature Communications, 2020).

Holding throughout (format): cell-based
Experiment [1] addresses T1, 320 non-olfactory GPCRs (Homo sapiens, UniProt O00574).
T1 construct: expressed in transfected cells; host or cells: HTLA cells

Experiment [2] concerns the target T2, 320 non-olfactory GPCRs (Homo sapiens, UniProt O14842).
T2 construct: expressed in transfected cells; host or cells: HTLA cells

In experiment [3] the target is T3, 320 non-olfactory GPCRs (Homo sapiens, UniProt Q86SM8).
T3 construct: expressed in transfected cells; host or cells: HTLA cells
T3 sequence (Q86SM8 whole entry): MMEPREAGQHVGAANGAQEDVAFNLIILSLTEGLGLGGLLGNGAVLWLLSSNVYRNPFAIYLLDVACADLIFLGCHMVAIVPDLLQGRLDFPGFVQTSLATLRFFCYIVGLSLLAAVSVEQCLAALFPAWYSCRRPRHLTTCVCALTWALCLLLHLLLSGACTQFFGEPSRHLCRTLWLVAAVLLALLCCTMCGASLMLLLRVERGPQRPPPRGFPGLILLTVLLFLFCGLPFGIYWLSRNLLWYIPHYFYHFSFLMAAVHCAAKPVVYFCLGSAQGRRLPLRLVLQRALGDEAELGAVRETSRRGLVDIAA
Conditions: receptor MRGPRE; replicate values, Fig_4g.

The target of experiment [4] is T4, 320 non-olfactory GPCRs (Homo sapiens, UniProt Q9Y5X5).
T4 construct: expressed in transfected cells; host or cells: HTLA cells
T4 sequence (Q9Y5X5 whole entry): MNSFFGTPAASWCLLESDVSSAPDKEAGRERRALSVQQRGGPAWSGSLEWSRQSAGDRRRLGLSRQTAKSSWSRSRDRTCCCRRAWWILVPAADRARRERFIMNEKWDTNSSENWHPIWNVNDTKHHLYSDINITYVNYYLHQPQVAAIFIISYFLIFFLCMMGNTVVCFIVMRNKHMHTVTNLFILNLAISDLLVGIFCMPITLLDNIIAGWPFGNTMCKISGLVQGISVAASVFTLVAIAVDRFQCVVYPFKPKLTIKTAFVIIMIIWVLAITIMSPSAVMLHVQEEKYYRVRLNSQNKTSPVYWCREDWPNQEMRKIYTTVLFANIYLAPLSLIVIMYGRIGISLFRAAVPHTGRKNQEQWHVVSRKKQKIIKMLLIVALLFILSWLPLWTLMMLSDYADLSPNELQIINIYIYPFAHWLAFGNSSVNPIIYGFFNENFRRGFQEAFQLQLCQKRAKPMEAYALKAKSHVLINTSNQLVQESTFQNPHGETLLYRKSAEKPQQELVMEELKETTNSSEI
The settings on record: receptor NPFF2; replicate values, Fig_4g.

Each structure is given as a SMILES string. “And” between values parts separate entries of the source, which are not always exact repeats. Equal values may be shown once.
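Throughout, for Fold of Basal: compound tested at 1 µM final concentration.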
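Throughout, for GPCRome agonism screen response: fold over basal response of each receptor without drug.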

T2 sequence (O14842 whole entry): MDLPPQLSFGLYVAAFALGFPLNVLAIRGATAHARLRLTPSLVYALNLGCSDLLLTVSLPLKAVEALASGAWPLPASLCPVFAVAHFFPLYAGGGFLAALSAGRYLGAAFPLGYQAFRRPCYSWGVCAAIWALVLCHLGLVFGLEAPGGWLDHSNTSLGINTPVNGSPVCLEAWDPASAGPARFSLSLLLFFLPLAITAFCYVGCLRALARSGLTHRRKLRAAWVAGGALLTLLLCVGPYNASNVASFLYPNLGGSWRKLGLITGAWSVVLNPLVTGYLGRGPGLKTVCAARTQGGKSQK
T1 sequence (O00574 whole entry): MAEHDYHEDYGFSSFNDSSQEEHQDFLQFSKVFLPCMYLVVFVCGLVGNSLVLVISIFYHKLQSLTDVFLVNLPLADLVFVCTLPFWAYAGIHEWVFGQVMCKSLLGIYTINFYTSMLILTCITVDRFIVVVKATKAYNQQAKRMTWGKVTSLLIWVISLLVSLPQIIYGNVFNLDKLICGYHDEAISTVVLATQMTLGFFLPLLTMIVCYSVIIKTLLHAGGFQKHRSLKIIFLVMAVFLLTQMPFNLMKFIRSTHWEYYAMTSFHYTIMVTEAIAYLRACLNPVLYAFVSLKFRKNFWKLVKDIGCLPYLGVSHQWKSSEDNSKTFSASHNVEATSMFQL

For the compound `CCOc1cccc2cc(C(C)NCC3(O)CCCCC3)oc12` (stereo not shown) [O4LE6], the “Fold of Basal” value on 320 non-olfactory GPCRs [1] was 0.9849 and 0.6404 and 1.204 and 0.796; at 320 non-olfactory GPCRs [2], 1.069 and 1.057 and 1.21 and 0.9963. For the same compound, the “GPCRome agonism screen response” value on 320 non-olfactory GPCRs [3] is 0.6882 and 1.103 and 0.7685 and 1.012; at 320 non-olfactory GPCRs [4] it was 1.684 and 1.1 and 0.9323 and 0.6942.
